Test results reported in patent publication US10475593B2, “Use of halogen derivatives of histidine as electrolytic salt in a photovoltaic dye cell” (CENTRE NATIONAL DE LA RECHERCHE SCIENTIFIQUE, priority 2014, dated 2019).

Experiment: Thermogravimetric analysis under air
Type: physicochemical
Protocol: A thermogravimetric analysis under air of the compound 3a was also carried out after storage exposed to the air for 3 weeks.
By way of comparison, a thermogravimetric analysis of an imidazolium iodide not coming within the invention, namely 1,3-dimethylimidazolium iodide (DMII), was also carried out.
The results obtained are given in the appended FIGS. 1 and 2. FIG. 1 gives the results of the calorimetric analysis of the compound 3a. In this figure, the heat flux (in W/g) is a function of the temperature (in ° C.). FIG. 2 gives the results of the thermogravimetric analysis for the compound 3a (continuous line) in comparison with the DMII (noncontinuous line).
In comparison, DMII allows a loss in weight of the order of 30% originating from the water captured as a result of its hygroscopicity.

SMILES	hygroscopicity (after storage exposed to the air for 3 weeks)	temperature up to which the compound is stable (thermogravimetric analysis under air)	loss in weight originating from captured water (hygroscopicity) (thermogravimetric analysis)
COC(=O)CCc1cn(C)c[n+]1C.[I-] [Compound 3a, 4-(3-methoxy-3-oxopropyl)-1,3-dimethyl-1H-imidazol-3-ium Iodide]	does not exhibit any hygroscopicity nature	300 °C	
Cn1cc[n+](C)c1.[I-] [DMII, 1,3-Dimethylimidazolium iodide, reference compound]			~30%
